Test system: 648629-189-R-J1-PDC complex spheroids viability
Assay: Anticancer human tumor 648629-189-R-J1-PDC patient-derived bladder carcinoma cell line growth inhibition [CLK]
Details: for viability, T/C: stronger effect = lower value
Method in brief: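 Patient-derived tumor cells grown as complex spheroids with HUVEC endothelial cells and mesenchymal stem cells, treated with drug combinations. Concentrations descend in half-log steps from near clinical Cmax, or from 10 microM if Cmax unknown.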

[1] = curve of first compound, second compound 0.0316 µM
[2] = curve of first compound, second compound 0.1 µM
[3] = curve of first compound, second compound 0.316 µM
[4] = curve of first compound, second compound 1 µM
[5] = curve of first compound, second compound 3.16 µM
[6] = curve of first compound, second compound 10 µM
[7] = second compound 0.0316 µM, first compound 0.0316 µM
[8] = second compound 0.0316 µM, first compound 0.1 µM
[9] = second compound 0.0316 µM, first compound 0.316 µM
[10] = second compound 0.0316 µM, first compound 1 µM
[11] = second compound 0.1 µM, first compound 0.0316 µM
[12] = second compound 0.1 µM, first compound 0.1 µM
[13] = second compound 0.1 µM, first compound 0.316 µM
[14] = second compound 0.1 µM, first compound 1 µM
[15] = second compound 0.316 µM, first compound 0.0316 µM
[16] = second compound 0.316 µM, first compound 0.1 µM
[17] = second compound 0.316 µM, first compound 0.316 µM
[18] = second compound 0.316 µM, first compound 1 µM
[19] = second compound 1 µM, first compound 0.0316 µM
[20] = second compound 1 µM, first compound 0.1 µM
[21] = second compound 1 µM, first compound 0.316 µM
[22] = second compound 1 µM, first compound 1 µM
[23] = second compound 3.16 µM, first compound 0.0316 µM
[24] = second compound 3.16 µM, first compound 0.1 µM
[25] = second compound 3.16 µM, first compound 0.316 µM
[26] = second compound 3.16 µM, first compound 1 µM
[27] = second compound 10 µM, first compound 0.0316 µM
[28] = second compound 10 µM, first compound 0.1 µM
[29] = second compound 10 µM, first compound 0.316 µM
[30] = second compound 10 µM, first compound 1 µM
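Throughout, for viability, T/C: drug exposure lasted seven days before viability readout; 100% = DMSO vehicle control wells.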

CCN1CCN(Cc2ccc(Nc3ncc(F)c(-c4cc(F)c5nc(C)n(C(C)C)c5c4)n3)nc2)CC1 + CNC(=O)c1ccc(Nc2nc(OC3CCCC3)c3c(-c4ccc5nc(C)oc5c4)c[nH]c3n2)c(OC)c1
IC50 [1]: > 1000 nM | IC50 [2]: > 1000 nM | IC50 [3]: < 3.16 nM | IC50 [4]: < 3.16 nM | IC50 [5]: < 3.16 nM | IC50 [6]: < 3.16 nM | viability, T/C (second compound 0.0316 µM, first compound 0.00316 µM): 98.4% | viability, T/C (second compound 0.0316 µM, first compound 0.01 µM): 103% | viability, T/C [7]: 107% | viability, T/C [8]: 100% | viability, T/C [9]: 113% | viability, T/C [10]: 136% | viability, T/C (second compound 0.1 µM, first compound 0.00316 µM): 81.3% | viability, T/C (second compound 0.1 µM, first compound 0.01 µM): 92.8% | viability, T/C [11]: 104% | viability, T/C [12]: 80.7% | viability, T/C [13]: 102% | viability, T/C [14]: 129% | viability, T/C (second compound 0.316 µM, first compound 0.00316 µM): 30.2% | viability, T/C (second compound 0.316 µM, first compound 0.01 µM): 28.1% | viability, T/C [15]: 24.2% | viability, T/C [16]: 28.4% | viability, T/C [17]: 36.4% | viability, T/C [18]: 39.6% | viability, T/C (second compound 1 µM, first compound 0.00316 µM): 17.2% | viability, T/C (second compound 1 µM, first compound 0.01 µM): 23% | viability, T/C [19]: 19.1% | viability, T/C [20]: 24.1% | viability, T/C [21]: 21.5% | viability, T/C [22]: 31.1% | viability, T/C (second compound 3.16 µM, first compound 0.00316 µM): 18.2% | viability, T/C (second compound 3.16 µM, first compound 0.01 µM): 18.6% | viability, T/C [23]: 20.9% | viability, T/C [24]: 17.8% | viability, T/C [25]: 23.9% | viability, T/C [26]: 25.1% | viability, T/C (second compound 10 µM, first compound 0.00316 µM): 16.2% | viability, T/C (second compound 10 µM, first compound 0.01 µM): 18.9% | viability, T/C [27]: 18.1% | viability, T/C [28]: 18.9% | viability, T/C [29]: 24.3% | viability, T/C [30]: 23.8%

CN1CCN(c2cc(C(=O)Nc3cc4cc(-c5cnn(C)c5)ccc4cn3)ccn2)CC1
viability, T/C (compound 0.0316 µM): 113% [middle of 12 runs] | viability, T/C (compound 0.1 µM): 105% [middle of 12 runs] | viability, T/C (compound 1 µM): 0.38% [middle of 11 runs] | viability, T/C (compound 3.16 µM): 0.16% [middle of 7 runs] | viability, T/C (compound 10 µM): 0.15% [middle of 7 runs] | IC50 (compound alone, run of 07/31/2023): 286 nM [middle of 11 runs]

CC(=O)O[C@H]1C(=O)[C@@]2(C)[C@H]([C@H](OC(=O)c3ccccc3)[C@]3(O)C[C@H](OC(=O)[C@H](O)[C@@H](NC(=O)c4ccccc4)c4ccccc4)C(C)=C1C3(C)C)[C@]1(OC(C)=O)CO[C@@H]1C[C@@H]2O + CN1CCN(c2cc(C(=O)Nc3cc4cc(-c5cnn(C)c5)ccc4cn3)ccn2)CC1
IC50 [1]: < 31.6 nM | IC50 [2]: < 31.6 nM | IC50 [3]: < 31.6 nM | IC50 [4]: < 31.6 nM | IC50 [5]: < 31.6 nM | IC50 [6]: < 31.6 nM | viability, T/C [7]: 10.9% | viability, T/C [8]: 8.37% | viability, T/C [9]: 9.02% | viability, T/C [10]: 10.6% | viability, T/C (second compound 0.0316 µM, first compound 3.16 µM): 7.39% | viability, T/C (second compound 0.0316 µM, first compound 10 µM): 9.59% | viability, T/C [11]: 7.2% | viability, T/C [12]: 8.42% | viability, T/C [13]: 6.79% | viability, T/C [14]: 7.78% | viability, T/C (second compound 0.1 µM, first compound 3.16 µM): 8.57% | viability, T/C (second compound 0.1 µM, first compound 10 µM): 9.47% | viability, T/C [15]: 9.01% | viability, T/C [16]: 9.65% | viability, T/C [17]: 10.1% | viability, T/C [18]: 9.51% | viability, T/C (second compound 0.316 µM, first compound 3.16 µM): 8.91% | viability, T/C (second compound 0.316 µM, first compound 10 µM): 11.2% | viability, T/C [19]: 0.14% | viability, T/C [20]: 0.13% | viability, T/C [21]: 0.87% | viability, T/C [22]: 0.11% | viability, T/C (second compound 1 µM, first compound 3.16 µM): 0.47% | viability, T/C (second compound 1 µM, first compound 10 µM): 0.64% | viability, T/C [23]: 0.07% | viability, T/C [24]: 1.18% | viability, T/C [25]: 0.13% | viability, T/C [26]: 0.09% | viability, T/C (second compound 3.16 µM, first compound 3.16 µM): 0.11% | viability, T/C (second compound 3.16 µM, first compound 10 µM): 0.1% | viability, T/C [27]: 0.1% | viability, T/C [28]: 0.13% | viability, T/C [29]: 0.2% | viability, T/C [30]: 0.17% | viability, T/C (second compound 10 µM, first compound 3.16 µM): 1.53% | viability, T/C (second compound 10 µM, first compound 10 µM): 0.16%
